# Reference: ChEMBL document CHEMBL3875198, “Synthesis and biological properties of galactofuranosyl-containing fluorescent dyes” (Bioorg Med Chem Lett, 2017)
# The source made the active and inactive calls. No cut-off for these calls is given here.
# What was measured:
# [1] = Cellular uptake in human macrophages infected with amastigote form of Leishmania donovani MHOM/SD/LEM3427 at 80 uM measured after 6 hrs by Hoechst-33342 staining based epifluorescence microscopy; assay type: ADME, cell-based; details: macrophage
# Leishmania donovani [2] = assay: Antileishmanial activity against amastigote form of Leishmania donovani MHOM/SD/LEM3427 infected in human macrophages assessed as reduction in amastigote multiplication at 80 uM measured after 48 hrs; assay type: functional
# [3] = Drug uptake in human macrophage cytoplasm infected with amastigote form of Leishmania donovani MHOM/SD/LEM3427 at 80 uM measured after 6 to 18 hrs by Hoechst-33342 staining based epifluorescence microscopy; assay type: ADME
# Leishmania donovani [4] = assay: Antileishmanial activity against amastigote form of Leishmania donovani MHOM/SD/LEM3427 infected in human macrophages assessed as reduction in macrophage infection at 80 uM measured after 48 hrs; assay type: functional
# Leishmania donovani [5] = assay: Antileishmanial activity against amastigote form of Leishmania donovani MHOM/SD/LEM3427 infected in human macrophages assessed as phenotypic surface alterations by MGG-staining based analysis; assay type: functional
Drug uptake [1],Drug uptake [3],Structure (SMILES),Activity (Leishmania donovani [2]),Activity (Leishmania donovani [4]),Activity (Leishmania donovani [5])
Active,Active,CC/N=c1/cc2oc3cc(NCC)c(C)cc3c(-c3ccccc3C(=O)NCCCCCCO[C@@H]3O[C@@H]([C@H](O)CO)[C@H](O)[C@H]3O)c-2cc1C.Cl,Active,Active,–
Active,Active,CC/N=c1\cc2oc3cc(NCC)c(C)cc3c(-c3ccccc3C(=O)OCC)c-2cc1C.Cl [RHODAMINE 6G HYDROCHLORIDE],–,–,Active
Active,Active,O=C(O)c1cc(NC(=S)NCCCCCCO[C@@H]2O[C@@H]([C@H](O)CO)[C@H](O)[C@H]2O)ccc1-c1c2ccc(=O)cc-2oc2cc(O)ccc12,–,–,–
